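Briefly, cells in 96-well plates were exposed to five compound concentrations for 48 h, and endpoints were estimated by linear interpolation. GI50 is the concentration that inhibits growth by half.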 The source made the active and inactive calls. Rule as the data show it: active = GI50 up to about 1.1 µM and inactive = higher.
Columns and labels:
Assay in all cases: DTP human tumour cell line panel, 48 h
XF498 = test system: XF498
SF-539 = test system: SF-539
RXF 393 = test system: RXF 393
NCI-H23 = test system: NCI-H23
UO-31 = test system: UO-31
HL-60 = test system: HL-60
ACHN = test system: ACHN
HCC 2998 = test system: HCC 2998
SW-620 = test system: SW-620
OVCAR-4 = test system: OVCAR-4
DLD-1 = test system: DLD-1
EKVX = test system: EKVX
DMS-114 = test system: DMS-114
NCI-H460 = test system: NCI-H460
UACC-257 = test system: UACC-257
SK-MEL-5 = test system: SK-MEL-5
HOP-18 = test system: HOP-18
786-0 = test system: 786-0
MOLT-4 = test system: MOLT-4
UACC-62 = test system: UACC-62
IGROV-1 = test system: IGROV-1
SNB-19 = test system: SNB-19
K562 = test system: K562
M14 = test system: M14
CAKI-1 = test system: CAKI-1
SF-268 = test system: SF-268
KM-20L2 = test system: KM-20L2
RPMI-8226 = test system: RPMI-8226
OVCAR-5 = test system: OVCAR-5
SN12C = test system: SN12C
HT-29 = test system: HT-29
U-251 = test system: U-251
DMS-273 = test system: DMS-273
A498 = test system: A498
SK-MEL-28 = test system: SK-MEL-28
TK-10 = test system: TK-10
NCI-H522 = test system: NCI-H522
OVCAR-8 = test system: OVCAR-8
LXFL 529 = test system: LXFL 529
SNB-78 = test system: SNB-78
SK-MEL-2 = test system: SK-MEL-2
SK-OV-3 = test system: SK-OV-3
SF-295 = test system: SF-295
COLO 205 = test system: COLO 205
KM12 = test system: KM12
SNB-75 = test system: SNB-75
LOX IMVI = test system: LOX IMVI
HCT-15 = test system: HCT-15
A549 = test system: A549
Malme-3M = test system: Malme-3M
CCRF-CEM = test system: CCRF-CEM
RXF 631 = test system: RXF 631
OVCAR-3 = test system: OVCAR-3
HOP-62 = test system: HOP-62
HCT-116 = test system: HCT-116
M19-MEL = test system: M19-MEL
NCI-H226 = test system: NCI-H226
HOP-92 = test system: HOP-92

`CC1=NN(c2ccccc2)C(=O)/C1=C\c1ccc([N+](=O)[O-])cc1` was tested. Which GI50 (XF498) did it give?
The GI50 was 16.6 µM (inactive).

What about the GI50 (SF-539) of the same molecule?
The GI50 was 22.4 µM (inactive).

What about the GI50 (RXF 393) of the same molecule?
The GI50 was 19.5 µM (inactive).

And the GI50 (NCI-H23)?
Its GI50 is 27.9 µM (inactive).

And the GI50 (UO-31)?
Its GI50 is 32.3 µM (inactive).

What about the GI50 (HL-60) of the same molecule?
Its GI50 is 23.3 µM (inactive).

What about the GI50 (ACHN) of the same molecule?
The GI50 was 31.5 µM (inactive).

What about the GI50 (HCC 2998) of the same molecule?
The GI50 was 25.6 µM (inactive).

What about the GI50 (SW-620) of the same molecule?
The GI50 was 30.3 µM (inactive).

What about the GI50 (OVCAR-4) of the same molecule?
Its GI50 is 19.3 µM (inactive).

What about the GI50 (DLD-1) of the same molecule?
The GI50 was 36 µM (inactive).

What about the GI50 (EKVX) of the same molecule?
The GI50 was 36.6 µM (inactive).

What about the GI50 (DMS-114) of the same molecule?
Its GI50 is 20.8 µM (inactive).

What about the GI50 (NCI-H460) of the same molecule?
Its GI50 is 34 µM (inactive).

And the GI50 (UACC-257)?
The GI50 was 28.7 µM (inactive).

What about the GI50 (SK-MEL-5) of the same molecule?
The GI50 was 22.4 µM (inactive).

And the GI50 (HOP-18)?
The GI50 was < 0.01 µM (active).

What about the GI50 (786-0) of the same molecule?
The GI50 was 29.1 µM (inactive).

What about the GI50 (MOLT-4) of the same molecule?
The GI50 was 21.5 µM (inactive).

And the GI50 (UACC-62)?
Its GI50 is 21.7 µM (inactive).

And the GI50 (IGROV-1)?
The GI50 was 29.6 µM (inactive).

And the GI50 (SNB-19)?
Its GI50 is 30.5 µM (inactive).

And the GI50 (K562)?
The GI50 was 28.6 µM (inactive).

And the GI50 (M14)?
The GI50 was 30.8 µM (inactive).

And the GI50 (CAKI-1)?
Its GI50 is 27.3 µM (inactive).

And the GI50 (SF-268)?
Its GI50 is 38.6 µM (inactive).

What about the GI50 (KM-20L2) of the same molecule?
Its GI50 is 22.8 µM (inactive).

And the GI50 (RPMI-8226)?
Its GI50 is 23.6 µM (inactive).

And the GI50 (OVCAR-5)?
The GI50 was 24.5 µM (inactive).

What about the GI50 (SN12C) of the same molecule?
The GI50 was 32.1 µM (inactive).

And the GI50 (HT-29)?
Its GI50 is 28.3 µM (inactive).

And the GI50 (U-251)?
Its GI50 is 41.3 µM (inactive).

And the GI50 (DMS-273)?
Its GI50 is 25 µM (inactive).

And the GI50 (A498)?
The GI50 was 11.4 µM (inactive).

What about the GI50 (SK-MEL-28) of the same molecule?
The GI50 was 36.6 µM (inactive).

What about the GI50 (TK-10) of the same molecule?
Its GI50 is 48.8 µM (inactive).

And the GI50 (NCI-H522)?
Its GI50 is 21.8 µM (inactive).

And the GI50 (OVCAR-8)?
The GI50 was 31.2 µM (inactive).

And the GI50 (LXFL 529)?
The GI50 was 32.1 µM (inactive).

And the GI50 (SNB-78)?
Its GI50 is 28.4 µM (inactive).

What about the GI50 (SK-MEL-2) of the same molecule?
The GI50 was 21.9 µM (inactive).

And the GI50 (SK-OV-3)?
Its GI50 is 24.1 µM (inactive).

What about the GI50 (SF-295) of the same molecule?
The GI50 was 31.1 µM (inactive).

And the GI50 (COLO 205)?
Its GI50 is 17.7 µM (inactive).

And the GI50 (KM12)?
The GI50 was 26.4 µM (inactive).

What about the GI50 (SNB-75) of the same molecule?
The GI50 was 25.5 µM (inactive).

And the GI50 (LOX IMVI)?
The GI50 was 21.1 µM (inactive).

What about the GI50 (HCT-15) of the same molecule?
The GI50 was 29.6 µM.

What about the GI50 (A549) of the same molecule?
The GI50 was 35.4 µM (inactive).

And the GI50 (Malme-3M)?
The GI50 was 23.9 µM (inactive).

And the GI50 (CCRF-CEM)?
The GI50 was 20.7 µM (inactive).

And the GI50 (RXF 631)?
The GI50 was 29.5 µM (inactive).

With `O=c1cc2ccccc2nn1Cc1cccc(Cl)c1` as the molecule, how does the GI50 (XF498) read?
The GI50 was 18.8 µM (inactive).

And the GI50 (SF-539)?
The GI50 was > 100 µM (inactive).

And the GI50 (NCI-H23)?
Its GI50 is 57.3 µM (inactive).

And the GI50 (UO-31)?
Its GI50 is 37.5 µM (inactive).

And the GI50 (OVCAR-3)?
Its GI50 is 62.2 µM (inactive).

What about the GI50 (ACHN) of the same molecule?
The GI50 was > 100 µM (inactive).

And the GI50 (HCC 2998)?
The GI50 was > 100 µM (inactive).

What about the GI50 (SW-620) of the same molecule?
Its GI50 is 92.5 µM (inactive).

What about the GI50 (OVCAR-4) of the same molecule?
The GI50 was > 100 µM (inactive).

And the GI50 (DLD-1)?
Its GI50 is > 100 µM (inactive).

And the GI50 (HOP-62)?
Its GI50 is > 100 µM (inactive).

And the GI50 (EKVX)?
The GI50 was > 100 µM (inactive).

What about the GI50 (DMS-114) of the same molecule?
The GI50 was 66.4 µM (inactive).

And the GI50 (HCT-116)?
Its GI50 is 78.9 µM (inactive).

What about the GI50 (NCI-H460) of the same molecule?
The GI50 was > 100 µM (inactive).

And the GI50 (UACC-257)?
Its GI50 is > 100 µM (inactive).

What about the GI50 (SK-MEL-5) of the same molecule?
The GI50 was 37.8 µM (inactive).

What about the GI50 (HOP-18) of the same molecule?
The GI50 was > 100 µM (inactive).

And the GI50 (786-0)?
The GI50 was > 100 µM (inactive).

What about the GI50 (UACC-62) of the same molecule?
Its GI50 is > 100 µM (inactive).

And the GI50 (IGROV-1)?
The GI50 was > 100 µM (inactive).

What about the GI50 (SNB-19) of the same molecule?
Its GI50 is > 100 µM (inactive).

And the GI50 (M19-MEL)?
Its GI50 is > 100 µM (inactive).

And the GI50 (K562)?
Its GI50 is 32.4 µM (inactive).

What about the GI50 (M14) of the same molecule?
The GI50 was > 100 µM (inactive).

And the GI50 (NCI-H226)?
The GI50 was 57.1 µM (inactive).

And the GI50 (CAKI-1)?
The GI50 was > 100 µM (inactive).

And the GI50 (SF-268)?
Its GI50 is 90.2 µM (inactive).

What about the GI50 (KM-20L2) of the same molecule?
Its GI50 is > 100 µM (inactive).

What about the GI50 (HOP-92) of the same molecule?
The GI50 was > 100 µM (inactive).

What about the GI50 (RPMI-8226) of the same molecule?
The GI50 was 30.7 µM (inactive).

And the GI50 (OVCAR-5)?
Its GI50 is > 100 µM (inactive).

And the GI50 (SN12C)?
Its GI50 is 97.9 µM (inactive).

What about the GI50 (HT-29) of the same molecule?
The GI50 was > 100 µM (inactive).

What about the GI50 (U-251) of the same molecule?
The GI50 was > 100 µM (inactive).

What about the GI50 (DMS-273) of the same molecule?
Its GI50 is 85.9 µM (inactive).

What about the GI50 (A498) of the same molecule?
The GI50 was > 100 µM (inactive).

What about the GI50 (SK-MEL-28) of the same molecule?
Its GI50 is 98.9 µM (inactive).

What about the GI50 (TK-10) of the same molecule?
The GI50 was > 100 µM (inactive).

And the GI50 (OVCAR-8)?
Its GI50 is 73.3 µM (inactive).

What about the GI50 (SNB-78) of the same molecule?
The GI50 was > 100 µM (inactive).

And the GI50 (SK-MEL-2)?
The GI50 was > 100 µM (inactive).

And the GI50 (SK-OV-3)?
Its GI50 is > 100 µM (inactive).

What about the GI50 (SF-295) of the same molecule?
The GI50 was > 100 µM (inactive).

And the GI50 (COLO 205)?
Its GI50 is > 100 µM (inactive).

And the GI50 (KM12)?
The GI50 was > 100 µM (inactive).

What about the GI50 (SNB-75) of the same molecule?
Its GI50 is 32.7 µM (inactive).

What about the GI50 (LOX IMVI) of the same molecule?
Its GI50 is > 100 µM (inactive).

And the GI50 (HCT-15)?
The GI50 was 99.5 µM.

What about the GI50 (A549) of the same molecule?
Its GI50 is 49.8 µM (inactive).

What about the GI50 (Malme-3M) of the same molecule?
Its GI50 is > 100 µM (inactive).

What about the GI50 (CCRF-CEM) of the same molecule?
The GI50 was 71.1 µM (inactive).

And the GI50 (RXF 631)?
The GI50 was > 100 µM (inactive).

— ChEMBL document CHEMBL1201862, “PubChem BioAssay data set” (2004)
